Data reported in patent US5328902A, “7-(substituted)-9-[(substituted glycyl)amido]-6-demethyl-6-deoxytetracyclines” (American Cyanamid Co., priority 1992, dated 1994).
In brackets after ≈: the same amount, converted by molar mass. Read-outs that look alike come from different tables or passages of the source.

How the values were obtained:
E. coli UBMS 88-1 Tet B = test: microbe, parasite or virus in culture; format: cell-based
[1] = test system: E. coli MC 4100 Tet sens.; test: MIC, agar dilution; format: cell-based
E. coli PRP1 Tet A = test: microbe, parasite or virus in culture; format: cell-based; conditions: E. coli PRP1 Tet A
[2] = test system: E. coli MC 4100 TNIOC Tet B; test: microbe, parasite or virus in culture; format: cell-based
E. coli J3272 Tet C = test: microbe, parasite or virus in culture; format: cell-based
E. coli UBMS 89-1 Tet M = test: microbe, parasite or virus in culture; format: cell-based
[3] = test system: E. coli UBMS 89-2 Tet sens.; test: MIC, agar dilution; format: cell-based
E. coli J2175 = test: MIC, agar dilution; format: cell-based
E. coli BAJ9003 IMP MUT = test: microbe, parasite or virus in culture; format: cell-based
E. coli UBMS 90-4 Tet M = test: microbe, parasite or virus in culture; format: cell-based; conditions: E. coli UBMS 90-4 Tet M
E. coli UBMS 90-5 = test: MIC, agar dilution; format: cell-based
E. coli #311 (MP) = test: MIC, agar dilution; format: cell-based
E. coli ATCC 25922 = test: MIC, agar dilution; format: cell-based
S. mariescens FPOR 8733 = test: MIC, agar dilution; format: cell-based
[4] = test system: X. maltophilia NEMC 87210; test: MIC, agar dilution; format: cell-based
[5] = test system: Ps. acruginosa ATCC 27853; test: MIC, agar dilution; format: cell-based
S. aureus NEMC 8769 = test: MIC, agar dilution; format: cell-based; conditions: S. aureus NEMC 8769
S. aureus UBMS 88-4 = test: MIC, agar dilution; format: cell-based
[6] = test system: S. aureus UBMS 88-5 Tet M; test: microbe, parasite or virus in culture; format: cell-based
[7] = test system: S. aureus UBMS 88-7 Tet K; test: microbe, parasite or virus in culture; format: cell-based; conditions: S. aureus UBMS 88-7 Tet K
[8] = test system: S. aureus UBMS 90-1 Tet M; test: microbe, parasite or virus in culture; format: cell-based
S. aureus UBMS 90-3 = test: MIC, agar dilution; format: cell-based
[9] = test system: S. aureus UBMS 90-2 Tet M; test: microbe, parasite or virus in culture; format: cell-based
S. aureus IVES 2943 = test: MIC, agar dilution; format: cell-based
S. aureus ROSE (MP) = test: MIC, agar dilution; format: cell-based
S. aureus SMITH (MP) = test: MIC, agar dilution; format: cell-based; conditions: S. aureus SMITH (MP)
S. aureus IVES 1 983 = test: MIC, agar dilution; format: cell-based
S. aureus ATCC 29213 = test: MIC, agar dilution; format: cell-based; conditions: S. aureus ATCC 29213
[10] = test system: S. hemolyticus AVHAH 88-3; test: MIC, agar dilution; format: cell-based; conditions: S. hemolyticus AVHAH 88-3
E. faecalis ATCC 29212 = test: MIC, agar dilution; format: cell-based
E. coli J3272 Tet sens. = test: MIC, agar dilution; format: cell-based; conditions: Escherichia coli, 18 h, read-out: MIC
E. coli J3272 Tet D = test: microbe, parasite or virus in culture; format: cell-based; conditions: Escherichia coli, J3272TETD, 18 h
[11] = test system: Wild Type S30 (wild type ribosomes, E. coli strain MRE600, tetracycline sensitive); test: E. coli in vitro protein translation system, wild type S30

CN(C)c1cc(NC(=O)CNCCN2CCCCC2)c(O)c2c1C[C@H]1C[C@H]3[C@H](N(C)C)C(O)=C(C(N)=O)C(=O)[C@@]3(O)C(O)=C1C2=O [U, [4S-(4alpha,12alpha)]-4,7-Bis(dimethylamino)-1,4,4a,5,5a,6,11,12a-octahydro3,10,12,12a-tetrahydroxy-1,11-dioxo-9-[[[[2-(1-piperidinyl)ethyl]amino]acetyl]amino]-2-naphthacenecarboxamide]
MIC (E. coli UBMS 88-1 Tet B; E. coli UBMS 88-1 Tet B, 18 hours at 35° C.): > 32 µg/mL | MIC [1]: 4 µg/mL (≈ 6.24 µM) | MIC (E. coli PRP1 Tet A): > 32 µg/mL | MIC ([2]; E. coli MC 4100 TNIOC Tet B): 32 µg/mL (≈ 49.9 µM) | MIC (E. coli J3272 Tet C; E. coli J3272 Tet C): 16 µg/mL (≈ 25 µM) | MIC (E. coli UBMS 89-1 Tet M; E. coli UBMS 89-1 Tet M): 16 µg/mL (≈ 25 µM) | MIC ([3]; E. coli UBMS 89-2 Tet sens.): 32 µg/mL (≈ 49.9 µM) | MIC (E. coli J2175; E. coli J2175): 32 µg/mL (≈ 49.9 µM) | MIC (E. coli BAJ9003 IMP MUT; E. coli BAJ9003 IMP MUT): 2 µg/mL (≈ 3.12 µM) | MIC (E. coli UBMS 90-4 Tet M): 16 µg/mL (≈ 25 µM) | MIC (E. coli UBMS 90-5): 16 µg/mL (≈ 25 µM) | MIC (E. coli #311 (MP); E. coli #311 (MP)): 16 µg/mL (≈ 25 µM) | MIC (E. coli ATCC 25922; E. coli ATCC 25922): 16 µg/mL (≈ 25 µM) | MIC (S. mariescens FPOR 8733): > 32 µg/mL | MIC [4]: 16 µg/mL (≈ 25 µM) | MIC ([5]; Ps. acruginosa ATCC 27853): > 32 µg/mL | MIC (S. aureus NEMC 8769): 8 µg/mL (≈ 12.5 µM) | MIC (S. aureus UBMS 88-4; S. aureus UBMS 88-4): 8 µg/mL (≈ 12.5 µM) | MIC ([6]; S. aureus UBMS 88-5 Tet M): 16 µg/mL (≈ 25 µM) | MIC [7]: 16 µg/mL (≈ 25 µM) | MIC ([8]; S. aureus UBMS 90-1 Tet M): 32 µg/mL (≈ 49.9 µM) | MIC (S. aureus UBMS 90-3; S. aureus UBMS 90-3): 8 µg/mL (≈ 12.5 µM) | MIC ([9]; S. aureus UBMS 90-2 Tet M): 8 µg/mL (≈ 12.5 µM) | MIC (S. aureus IVES 2943; S. aureus IVES 2943): > 32 µg/mL | MIC (S. aureus ROSE (MP); S. aureus ROSE (MP)): > 32 µg/mL | MIC (S. aureus SMITH (MP)): 8 µg/mL (≈ 12.5 µM) | MIC (S. aureus IVES 1 983; S. aureus IVES 1 983): > 32 µg/mL | MIC (S. aureus ATCC 29213): 8 µg/mL (≈ 12.5 µM) | MIC [10]: 32 µg/mL (≈ 49.9 µM) | MIC (E. faecalis ATCC 29212; E. faecalis ATCC 29212): 8 µg/mL (≈ 12.5 µM)

CN(C)c1ccc(O)c2c1C[C@H]1C[C@H]3[C@H](N(C)C)C(O)=C(C(N)=O)C(=O)[C@@]3(O)C(O)=C1C2=O [O, Minocycline, reference compound]
MIC (E. coli UBMS 88-1 Tet B; Escherichia coli, UBMS881TETB, 18 h): 16 µg/mL (≈ 35 µM) | MIC (E. coli J3272 Tet sens.): 0.5 µg/mL (≈ 1.09 µM) | MIC ([2]; Escherichia coli, 18 h): 8 µg/mL (≈ 17.5 µM) | MIC (E. coli J3272 Tet C; Escherichia coli, J3272TETC, 18 h): 2 µg/mL (≈ 4.37 µM) | MIC (E. coli UBMS 89-1 Tet M; Escherichia coli, UBMS891TETM, 18 h): 8 µg/mL (≈ 17.5 µM) | MIC ([3]; Escherichia coli, 18 h): 0.5 µg/mL (≈ 1.09 µM) | MIC (E. coli J2175; Escherichia coli, J2175, 18 h): 0.5 µg/mL (≈ 1.09 µM) | MIC (E. coli BAJ9003 IMP MUT; Escherichia coli, BAJ9003IMPMUT, 18 h): 0.03 µg/mL (≈ 0.0656 µM) | MIC (E. coli UBMS 90-5; Escherichia coli, UBMS905, 18 h, read-out: MIC): 0.5 µg/mL (≈ 1.09 µM) | MIC (E. coli #311 (MP); Escherichia coli, 18 h): 0.25 µg/mL (≈ 0.546 µM) | MIC (E. coli ATCC 25922; Escherichia coli, ATCC25922, 18 h): 0.5 µg/mL (≈ 1.09 µM) | MIC (E. coli J3272 Tet D): 8 µg/mL (≈ 17.5 µM) | MIC (S. mariescens FPOR 8733; 18 h, read-out: MIC): 2 µg/mL (≈ 4.37 µM) | MIC ([5]; 18 h): 8 µg/mL (≈ 17.5 µM) | MIC (S. aureus NEMC 8769; Staphylococcus aureus, NEMC8769, 18 h, read-out: MIC): < 0.015 µg/mL | MIC (S. aureus UBMS 88-4; Staphylococcus aureus, UBMS884, 18 h): 0.03 µg/mL (≈ 0.0656 µM) | MIC ([6]; Staphylococcus aureus, UBMS885TETM, 18 h): 4 µg/mL (≈ 8.74 µM) | MIC ([8]; Staphylococcus aureus, UBMS901TETM, 18 h): 4 µg/mL (≈ 8.74 µM) | MIC (S. aureus UBMS 90-3; Staphylococcus aureus, UBMS903, 18 h): 0.03 µg/mL (≈ 0.0656 µM) | MIC ([9]; Staphylococcus aureus, UBMS902TETM, 18 h): 2 µg/mL (≈ 4.37 µM) | MIC (S. aureus IVES 2943; Staphylococcus aureus, IVES2943, 18 h): 2 µg/mL (≈ 4.37 µM) | MIC (S. aureus ROSE (MP); Staphylococcus aureus, 18 h): 0.5 µg/mL (≈ 1.09 µM) | MIC (S. aureus SMITH (MP); Staphylococcus aureus, 18 h, read-out: MIC): 0.03 µg/mL (≈ 0.0656 µM) | MIC (S. aureus IVES 1 983; Staphylococcus aureus, IVES1983, 18 h): 2 µg/mL (≈ 4.37 µM) | MIC (S. aureus ATCC 29213; Staphylococcus aureus, ATCC29213, 18 h, read-out: MIC): 0.03 µg/mL (≈ 0.0656 µM) | MIC (E. faecalis ATCC 29212; Enterococcus faecalis, ATCC29212, 18 h): 1 µg/mL (≈ 2.19 µM) | % Inhibition Wild Type S30 ([11]; Conc. 0.06 mg/ml): 78% | % Inhibition Wild Type S30 ([11]; Conc. 1.0 mg/ml): 98% | inhibition of protein synthesis occuring on wild type ribosomes ([11]; coupled transcription and translation system): effectively inhibit protein synthesis
